{
  "source": "paper PMC5671392",
  "about": "“Optimization of an in vitro assay methodology for competitive binding of thyroidogenic xenobiotics with thyroxine on human transthyretin and albumin” (MethodsX, 2017)",
  "key": {"[1]": {"system": "human TTR isolated from human plasma", "design": "method as in PMID 19033396", "settings": "in vitro; cited from earlier work"}, "[2]": {"molecular_target": "human albumin (ALB) (Homo sapiens, UniProt P02768)", "sequence (P02768 25-609)": "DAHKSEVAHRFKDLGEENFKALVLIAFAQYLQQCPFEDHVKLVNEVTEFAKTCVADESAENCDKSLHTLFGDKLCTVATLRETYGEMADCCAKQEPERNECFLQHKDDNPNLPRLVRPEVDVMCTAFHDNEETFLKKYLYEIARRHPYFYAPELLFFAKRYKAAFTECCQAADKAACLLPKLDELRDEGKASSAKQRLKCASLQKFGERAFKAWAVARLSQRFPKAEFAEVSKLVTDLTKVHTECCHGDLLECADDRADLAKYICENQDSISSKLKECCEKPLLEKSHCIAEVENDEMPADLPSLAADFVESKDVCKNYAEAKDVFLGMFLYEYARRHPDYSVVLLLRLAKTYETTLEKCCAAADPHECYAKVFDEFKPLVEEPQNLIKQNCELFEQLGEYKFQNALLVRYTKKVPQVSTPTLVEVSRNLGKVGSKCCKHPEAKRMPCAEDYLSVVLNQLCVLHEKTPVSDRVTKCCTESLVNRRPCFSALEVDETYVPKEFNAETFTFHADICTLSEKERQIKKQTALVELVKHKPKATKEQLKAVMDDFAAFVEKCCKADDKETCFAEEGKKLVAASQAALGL", "experiment": "Competitive T4 radio-ligand (125I-T4) binding assay with human albumin", "settings": "600 nM ALB", "text": "(§1) The entire assay takes two days to complete for each batch of samples to be processed. The Day 1 procedure is described as follows. […] First, thaw the working solutions of these components to room temperature if they have been placed in frozen storage. For the protein working solutions, prepare the day they are to be used based on the number of assay aliquots required (one vial is sufficient for approximately 45 assay samples). […] Label a series of polypropylene test tubes corresponding to the samples being prepared. This should include triplicate samples for each ligand competitor concentration.\n(§2) The following steps describe the order of pipetting components for assay incubation mixtures. • 1. […] Continue for each increasing concentration of the ligand. Control samples receive 5 μL of DMSO in place of a competitor ligand. • 2. […] Centrifuge the samples at 300 × g for 30 s to force the solution to the bottom of the tube. • 4. Measure the initial radioactivity on the gamma counter. […]\n(§3) Label a series of clean test tubes corresponding to the samples prepared on Day 1 and repeat these labels on Bio-Spin® columns. Work on one replicate set at a time, leaving the remaining columns and incubation mixtures in the fridge until ready for processing. […] Measure the radioactivity of the eluate fraction, as well as the residual radioactivity in the incubation tubes containing the discarded pipette tips. […]"}, "[3]": {"molecular_target": "human transthyretin (TTR) (Homo sapiens, UniProt P02766)", "experiment": "Competitive T4 radio-ligand (125I-T4) binding assay with human transthyretin", "settings": "30 nM TTR", "text": "as §1, §2, §3"}},
  "data": [
    {"smiles": "Oc1cc(Br)c(Oc2ccc(Br)cc2Br)cc1Br", "note": "[4-OH-BDE-49, 4′-hydroxy-2,2′,4,5′-tetrabromodiphenyl ether]", "values": [
      {"measurement": "Binding affinity for human TTR compared with T4", "setting": "[1]", "result": "higher affinity than T4"},
      {"measurement": "IC50", "setting": "[2]; read-out: IC50, T4-ALB competitive binding, 55 nM T4 + 125I-T4, overnight at 4 °C, Tris-EDTA pH 8.0, 6 replicates", "result": 1.15, "unit": "nM"},
      {"measurement": "Ki", "setting": "[2]; read-out: Ki, T4-ALB competitive binding, calculated from IC50 after Cheng and Prusoff, unit inferred", "result": 1.08, "unit": "nM"},
      {"measurement": "IC50", "setting": "[3]; read-out: IC50, T4-TTR competitive binding, 55 nM T4 + 125I-T4, overnight at 4 °C, Tris-EDTA pH 8.0, 6 replicates", "result": 12.2, "unit": "nM"},
      {"measurement": "Ki", "setting": "[3]; read-out: Ki, T4-TTR competitive binding, calculated from IC50 after Cheng and Prusoff, unit inferred", "result": 12.2, "unit": "nM"}
    ]}
  ]
}
